Some test systems named below: BT-549; COLO 205; HOP-62; HOP-92; HT-29; MCF7; MDA-MB-231; Malme-3M; NCI-H23; OVCAR-5; PC-3; RXF 393; SN12C; SW-620; TK-10; UO-31; NCI-H522; NCI/ADR-RES; OVCAR-3; SF-539.
Assay in all cases: NCI tumour cell line growth inhibition, 48 h

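How tested: cells in 96-well plates exposed to compound for 48 hours at five concentrations. Here, GI50 denotes the concentration required for 50% inhibition of growth.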 Activity calls are given as the source filed them. No stated cut-off is given here; in the data, active = GI50 up to about 1.1 µM and inactive = higher.

For `CCOC(=O)C1CCCc2sc(N)c(C#N)c21` (stereo not given), the GI50 in the assay on BT-549 was 55.5 µM (inactive); in the assay with COLO 205 it was > 100 µM (inactive); in the assay on HOP-62 it was > 100 µM (inactive); with HOP-92 it was 70.6 µM (inactive); with HT-29, > 100 µM (inactive); in the assay with MCF7 it was > 100 µM (inactive). The GI50 in the assay on MDA-MB-231, in the assay with Malme-3M, in the assay with NCI-H23, in the assay on OVCAR-5, in the assay with PC-3 and in the assay with RXF 393 was > 100 µM (inactive) in each case. For the same compound, the GI50 with SN12C, with SW-620, with TK-10 and with UO-31 was > 100 µM (inactive) throughout.

For the compound `COc1ccc(C2SCC(=O)N2c2ccc(-n3c(-c4ccccc4)nc4ccccc4c3=O)cc2)cc1OC` (stereo not given), the GI50 in the assay on BT-549, in the assay with COLO 205, in the assay on HOP-62, in the assay with HT-29, in the assay with MCF7 and in the assay with MDA-MB-231 was > 100 µM (inactive) in each case. Further, the GI50 in the assay on Malme-3M was > 100 µM (inactive); with NCI-H23, > 100 µM (inactive); in the assay on NCI-H522, 90.6 µM (inactive); in the assay with NCI/ADR-RES it was > 100 µM (inactive); in the assay with OVCAR-3, > 100 µM (inactive); with OVCAR-5 it was > 100 µM (inactive). Further, the GI50 with PC-3 is 71.3 µM (inactive); in the assay with SF-539, > 100 µM (inactive); in the assay with SN12C it was > 100 µM (inactive); in the assay on SW-620, > 100 µM (inactive); in the assay with TK-10 it was > 100 µM (inactive); with UO-31 it was 12.9 µM (inactive).

Take `CCCCc1ccc(Nc2nc3ncnc-3c[nH]2)cc1`: the GI50 is 25.7 µM (inactive) with BT-549; 16.7 µM (inactive) in the assay with COLO 205; 17.7 µM (inactive) in the assay on HOP-62; 21.8 µM (inactive) with HOP-92; 21 µM (inactive) in the assay with HT-29; 29.6 µM (inactive) with MCF7. Further, the GI50 was 12.8 µM (inactive) with MDA-MB-231; 19.6 µM (inactive) in the assay with Malme-3M; 18.2 µM (inactive) in the assay on NCI-H23; 21.6 µM (inactive) in the assay with NCI-H522; 18.3 µM (inactive) in the assay with NCI/ADR-RES; 14.2 µM (inactive) in the assay on OVCAR-3. Moreover, the GI50 in the assay on OVCAR-5 is 37.2 µM (inactive); in the assay on RXF 393, 18.5 µM (inactive); with SF-539 it was 26.7 µM (inactive); in the assay on SN12C it was 18.8 µM (inactive); in the assay on SW-620 it was 20.4 µM (inactive); in the assay on TK-10, 17 µM (inactive). Besides, the GI50 in the assay with UO-31 was 12.5 µM (inactive).

As for `CCOc1cc2c(c(OCC)c1O)CC[C@@H]1[C@@H]2CC[C@]2(C)[C@@H](O)CC[C@@H]12`, the GI50 was 0.418 µM (active) in the assay with BT-549; 20.5 µM (inactive) with COLO 205; 1.32 µM (inactive) in the assay with HOP-62; 18.7 µM (inactive) in the assay with HOP-92; 8.38 µM (inactive) in the assay on HT-29; 0.505 µM (active) with MCF7. For the same compound, the GI50 was 2.62 µM (inactive) with MDA-MB-231; 2.29 µM (inactive) in the assay on Malme-3M; 4.2 µM (inactive) in the assay on NCI-H23; 0.61 µM (active) with NCI-H522; 3.23 µM (inactive) with NCI/ADR-RES; 10.7 µM (inactive) with OVCAR-5. The GI50 with RXF 393 was 2.21 µM (inactive); with SF-539 it was 1.48 µM (inactive); with SW-620 it was 1.22 µM (inactive); with TK-10, 25.3 µM (inactive); in the assay on UO-31 it was 9.27 µM (inactive).

With `c1ccc2cc3c(cc2c1)nc1ccccn13`, the GI50 in the assay with BT-549 is > 100 µM (inactive); with COLO 205, > 100 µM (inactive); in the assay on HOP-62 it was > 100 µM (inactive); with HOP-92, > 100 µM (inactive); in the assay with MCF7, 28.2 µM (inactive); in the assay with Malme-3M it was > 100 µM (inactive). Besides, the GI50 in the assay with NCI-H23, in the assay with NCI/ADR-RES, in the assay with OVCAR-3, in the assay with OVCAR-5, in the assay with PC-3 and with RXF 393 was > 100 µM (inactive) each time. In addition, the GI50 with SF-539, with SN12C, in the assay on SW-620, in the assay on TK-10 and with UO-31 was > 100 µM (inactive) throughout.

For the compound `COc1ccc(OC)c2sc(N3C(=O)/C(=C/Cc4ccco4)N=C3c3ccccc3)nc12`, the GI50 in the assay with BT-549 is 50.2 µM (inactive); with COLO 205, 50.5 µM (inactive); in the assay on HOP-62 it was 43 µM (inactive); in the assay on HOP-92, 35.8 µM (inactive); in the assay on HT-29, 44 µM (inactive); in the assay on MCF7 it was 17.7 µM (inactive). Moreover, the GI50 in the assay with MDA-MB-231 is > 100 µM (inactive); with NCI/ADR-RES it was 63.1 µM (inactive); with OVCAR-3, 31.4 µM (inactive); in the assay with OVCAR-5, > 100 µM (inactive); in the assay on PC-3 it was 24.5 µM (inactive); in the assay with SF-539, 53.5 µM (inactive). Besides, the GI50 was 33.3 µM (inactive) in the assay on SN12C, 32.5 µM (inactive) in the assay with SW-620, > 100 µM (inactive) in the assay with TK-10 and 30.9 µM (inactive) with UO-31.

As for `CCC(=O)COc1ccc(NC(NC(=O)C(C(F)(F)F)C(F)(F)F)(C(F)(F)F)C(F)(F)F)cc1`, the GI50 is 21.2 µM (inactive) with COLO 205; > 100 µM (inactive) in the assay with HOP-62; 39.1 µM (inactive) with HOP-92; 22.7 µM (inactive) in the assay with HT-29; 27.2 µM (inactive) in the assay on MCF7; 26.5 µM (inactive) in the assay on MDA-MB-231. Also, the GI50 in the assay with Malme-3M is 27 µM (inactive); in the assay on NCI-H23, 36.5 µM (inactive); in the assay with NCI-H522, 18.4 µM (inactive); with NCI/ADR-RES, 18.9 µM (inactive); in the assay with OVCAR-3, 94 µM (inactive); in the assay on OVCAR-5 it was 46.8 µM (inactive). The GI50 in the assay with PC-3 is 48.1 µM (inactive); in the assay with RXF 393, 18.6 µM (inactive); in the assay with SF-539, 25.3 µM (inactive); in the assay with SN12C, > 10 µM (inactive); in the assay with SW-620 it was 41.3 µM (inactive); with TK-10 it was 37 µM (inactive). Further, the GI50 with UO-31 is 39.8 µM (inactive).

Regarding `C=C(C)C(=O)O[C@H]1C/C(CO)=C/CCC(=C)C(OC(C)=O)[C@H]2OC(=O)C(=C)[C@H]12` (stereo not given in full), the GI50 is 4.41 µM (inactive) with BT-549; 4.5 µM (inactive) in the assay on COLO 205; 26.2 µM (inactive) with HOP-62; 5.86 µM (inactive) in the assay on HT-29; 4.39 µM (inactive) with MCF7; 11.1 µM (inactive) in the assay with MDA-MB-231. For the same compound, the GI50 with Malme-3M was 3.96 µM (inactive); in the assay on NCI-H23 it was 10.3 µM (inactive); in the assay with NCI-H522, 3.45 µM (inactive); in the assay on NCI/ADR-RES it was 4.7 µM (inactive); in the assay with OVCAR-3, 6.44 µM (inactive); with OVCAR-5, 38.5 µM (inactive). The GI50 in the assay with PC-3 is 14.6 µM (inactive); with SF-539, 13.6 µM (inactive); in the assay on SN12C, 13.4 µM (inactive); in the assay with SW-620, 3.87 µM (inactive); in the assay with TK-10 it was > 10 µM (inactive); in the assay with UO-31 it was 5.19 µM (inactive).

With `CCN(CC(O)COc1ccc2c(c1)[n+]([O-])nc(N)[n+]2[O-])C(C)=O` (stereo not given), the GI50 is > 100 µM (inactive) in the assay on BT-549; 3.7 µM (inactive) in the assay with COLO 205; > 100 µM (inactive) with HOP-62; > 100 µM (inactive) in the assay with HT-29; 91 µM (inactive) in the assay with MCF7; > 100 µM (inactive) in the assay with MDA-MB-231. In addition, the GI50 with NCI-H23 is 91.2 µM (inactive); in the assay on NCI-H522 it was 31.1 µM (inactive); in the assay on NCI/ADR-RES, > 100 µM (inactive); with OVCAR-3, > 100 µM (inactive); with OVCAR-5, > 100 µM (inactive); with PC-3, > 100 µM (inactive). In addition, the GI50 in the assay on SF-539, with SN12C, in the assay on SW-620, in the assay on TK-10 and with UO-31 was > 100 µM (inactive) in each case.

For the compound `CN1CCN(C(=S)N(C(=O)c2ccco2)C2CCCCC2)CC1`, the GI50 in the assay on BT-549, in the assay on COLO 205, with HOP-92, in the assay on HT-29, in the assay on MCF7 and in the assay on MDA-MB-231 was > 100 µM (inactive) in each case. In addition, the GI50 in the assay with Malme-3M, with NCI-H23, with NCI-H522, in the assay on OVCAR-3, in the assay with OVCAR-5 and in the assay with RXF 393 was > 100 µM (inactive) throughout. Also, the GI50 with SN12C, with SW-620, in the assay on TK-10 and in the assay on UO-31 was > 100 µM (inactive) in each case.

On to `O=C1NC2(CCCCC2)C(=O)N1CCN(CCCl)CCCl` [SPIROMUSTINE], for which the GI50 with BT-549 was > 25 µM (inactive); in the assay on COLO 205, > 230 µM (inactive); in the assay with HOP-62, 107 µM (inactive); in the assay on HT-29 it was > 250 µM (inactive); with MCF7, 113 µM (inactive); with MDA-MB-231, > 25 µM (inactive). For the same compound, the GI50 in the assay with Malme-3M was 165 µM (inactive); in the assay with NCI-H23, 106 µM (inactive); in the assay on NCI-H522 it was 65.5 µM (inactive); in the assay with NCI/ADR-RES, 136 µM (inactive); in the assay on OVCAR-5, > 233 µM (inactive); in the assay with PC-3, > 25 µM (inactive). The GI50 in the assay on SF-539 is 114 µM (inactive); in the assay on SN12C, 112 µM (inactive); in the assay with SW-620 it was 102 µM (inactive); with TK-10, > 25 µM (inactive); in the assay with UO-31, 218 µM (inactive).
